Reference: the supplement of paper PMC10307832

Tests used:
Assay in all cases: relative viability (nuclei count vs DMSO), 5 days (fraction); higher = more cells survive
[1] = compound: CC1=C(C(=NN1)C)CC2=C(C3=C(S2)N(C(=O)N(C3=O)C)CC(C)C)C(=O)N4C[C@@H](CO4)O + C[C@@H](Oc1cc(-c2cnn(C3CCNCC3)c2)cnc1N)c1c(Cl)ccc(F)c1Cl [Crizotinib] (partner 1 µM)
Summary of the method: (§1)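 Relative viability equals treated-well nuclei counts divided by vehicle-well nuclei counts. Counts came from 4× images of lung cancer cell lines grown in 1536-well plates for 5 days after pin-tool dosing on the day after seeding. Dosing used one drug alone or a fixed anchor-drug dose plus five library-drug doses (not always all listed) in √10 steps, and values are medians of duplicate plates.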

IDH-C35 + Decitabine = compound: Cc1ccccc1C(C(=O)NC1CCCCC1)N(C(=O)Cn1ccnc1C)c1cccc(F)c1 [IDH-C35] + Nc1ncn([C@H]2C[C@H](O)[C@@H](CO)O2)c(=O)n1 [Decitabine] (partner 2 µM)
Summary of the method: as §1

[2] = compound: CC1=C(C(=NN1)C)CC2=C(C3=C(S2)N(C(=O)N(C3=O)C)CC(C)C)C(=O)N4C[C@@H](CO4)O + C[C@]1(O)C[C@@H](c2nc(-c3ccc4ccc(-c5ccccc5)nc4c3)c3c(N)nccn32)C1 [Linsitinib] (partner 1 µM)
Summary of the method: as §1

IDH-C35 + Palbociclib = compound: Cc1ccccc1C(C(=O)NC1CCCCC1)N(C(=O)Cn1ccnc1C)c1cccc(F)c1 [IDH-C35] + CC(=O)c1c(C)c2cnc(Nc3ccc(N4CCNCC4)cn3)nc2n(C2CCCC2)c1=O [Palbociclib] (partner 0.5 µM)
Summary of the method: as §1

| Cell Line | relative viability ([1]; first compound 0.0025 µM) | relative viability ([1]; first compound 0.007906 µM) | relative viability ([1]; first compound 0.025 µM) | relative viability ([1]; first compound 0.07906 µM) | relative viability ([1]; first compound 0.25 µM) | relative viability (IDH-C35 + Decitabine; first compound 0.08 µM) | relative viability (IDH-C35 + Decitabine; first compound 0.253 µM) | relative viability (IDH-C35 + Decitabine; first compound 0.8 µM) | relative viability (IDH-C35 + Decitabine; first compound 2.53 µM) | relative viability (IDH-C35 + Decitabine; first compound 8 µM) | relative viability ([2]; first compound 0.0025 µM) | relative viability ([2]; first compound 0.007906 µM) | relative viability ([2]; first compound 0.025 µM) | relative viability ([2]; first compound 0.07906 µM) | relative viability ([2]; first compound 0.25 µM) | relative viability (IDH-C35 + Palbociclib; first compound 0.08 µM) | relative viability (IDH-C35 + Palbociclib; first compound 0.253 µM) | relative viability (IDH-C35 + Palbociclib; first compound 0.8 µM) | relative viability (IDH-C35 + Palbociclib; first compound 2.53 µM) | relative viability (IDH-C35 + Palbociclib; first compound 8 µM) |
| --- | --- | --- | --- | --- | --- | --- | --- | --- | --- | --- | --- | --- | --- | --- | --- | --- | --- | --- | --- | --- |
| 201T | 1.06 | 0.978 | 1.03 | 1.06 | 1.05 | 0.871 | 0.839 | 0.86 | 0.839 | 0.836 | 1.06 | 0.988 | 1.03 | 1.1 | 1.06 | 0.361 | 0.375 | 0.346 | 0.351 | 0.343 |
| A549 | 0.763 | 0.805 | 0.663 | 0.858 | 1.07 | 0.313 | 0.263 | 0.312 | 0.195 | 0.223 | 0.591 | 0.624 | 0.574 | 0.72 | 0.649 | – | – | – | – | – |
| A-427 | 0.904 | 0.953 | 0.879 | 0.917 | 1.13 | 0.622 | 0.57 | 0.598 | 0.526 | 0.58 | 1.09 | 1.22 | 1.08 | 1.08 | 1.14 | 0.529 | 0.527 | 0.511 | 0.512 | 0.545 |
| ABC-1 | 1.24 | 0.905 | 1.01 | 0.956 | 0.992 | 0.838 | 1.12 | 0.975 | 0.98 | 0.95 | 0.676 | 0.793 | 0.905 | 1.27 | 0.8 | 0.765 | 0.819 | 0.491 | 0.785 | 0.824 |
| BEN | 0.912 | 0.719 | 0.75 | 0.604 | 0.847 | 0.683 | 0.707 | 0.681 | 0.707 | 0.75 | 0.932 | 0.79 | 0.762 | 0.663 | 0.862 | 0.433 | 0.514 | 0.466 | 0.481 | 0.463 |
| CAL-12T | 0.76 | 0.724 | 0.558 | 0.667 | 0.817 | – | – | – | – | – | 0.899 | 0.853 | 0.845 | 0.807 | 1.11 | 0.524 | 0.575 | 0.414 | 0.525 | 0.408 |
| COR-L23 | 0.679 | 0.56 | 0.445 | 0.403 | 0.386 | 0.426 | 0.471 | 0.421 | 0.478 | 0.459 | 0.975 | 0.859 | 0.601 | 0.788 | 0.713 | 0.31 | 0.294 | 0.305 | 0.311 | 0.315 |
| COR-L 105 | 0.969 | 0.738 | 0.668 | 0.748 | 0.771 | 0.559 | 0.678 | 0.724 | 0.677 | 0.619 | 1.1 | 0.943 | 0.853 | 0.961 | 0.95 | 0.417 | 0.413 | 0.41 | 0.407 | 0.401 |
| Calu-6 | 0.741 | 0.691 | 0.808 | 0.746 | 1 | – | – | – | – | – | 0.974 | 0.933 | 0.877 | 0.907 | 0.952 | – | – | – | – | – |
| ChaGo-K-1 | 1.13 | 0.876 | – | 1.09 | 1.25 | 0.507 | 0.531 | 0.535 | 0.533 | 0.531 | – | – | – | – | – | 0.921 | 0.907 | 0.92 | 0.898 | 0.983 |
| EBC-1 | 0.219 | 0.182 | 0.191 | 0.214 | 0.184 | – | – | – | – | – | 0.989 | 0.847 | 0.805 | 1.05 | 1.08 | – | – | – | – | – |
| EKVX | 1.09 | 1.11 | 0.988 | 0.962 | 0.992 | 0.343 | 0.399 | 0.4 | 0.321 | 0.339 | 0.978 | 1.05 | 0.939 | 1.05 | 1.04 | 0.402 | 0.365 | 0.385 | 0.356 | 0.373 |
| EMC-BAC-2 | 0.806 | 0.866 | 0.753 | 0.788 | 0.866 | 1.03 | 0.988 | 1 | 0.925 | 0.993 | 0.816 | 0.892 | 0.821 | 0.826 | 0.881 | 0.522 | 0.505 | 0.563 | 0.543 | 0.497 |
| EPLC-272H | 0.821 | 0.863 | 0.904 | 0.773 | 1.1 | 0.357 | 0.392 | 0.344 | – | 0.384 | 1.24 | 1.13 | 1.32 | 0.986 | 1.27 | 0.294 | 0.347 | 0.353 | – | 0.316 |
| H3255 | 0.924 | 0.902 | 0.817 | 0.816 | 0.926 | 0.61 | 0.607 | 0.606 | 0.63 | 0.596 | 1.06 | 0.881 | 0.909 | 1.01 | 1.11 | 0.315 | 0.281 | 0.337 | 0.305 | 0.326 |
| HARA | 1.09 | 1.19 | 0.915 | 0.987 | 1.04 | 0.434 | 0.438 | 0.625 | 0.504 | 0.505 | 1.08 | 1.01 | 0.919 | 0.924 | 1.01 | 0.222 | 0.298 | 0.268 | 0.311 | 0.234 |
| HCC-15 | 0.826 | 0.71 | 0.781 | 0.757 | 0.947 | 0.61 | 0.546 | 0.689 | 0.579 | 0.635 | 0.932 | 0.937 | 0.871 | 0.942 | 0.855 | 0.791 | 0.695 | 0.748 | – | 0.67 |
| HCC-44 | 0.765 | 0.843 | 0.88 | 0.811 | 0.929 | 0.997 | 0.914 | 0.91 | 0.939 | 0.901 | 0.855 | 0.713 | 0.629 | 0.684 | 0.74 | 0.973 | 0.965 | 0.987 | 0.951 | 0.962 |
